Experiments:
[1] = biological target: TakA (Rv1044), MBP-TakA (Mycobacterium tuberculosis, UniProt P96357)
[2] = biological target: TglT (Rv1045) (Mycobacterium tuberculosis, UniProt P96356)
TglT (Rv1045), sequence (P96356 1-293 limits assumed): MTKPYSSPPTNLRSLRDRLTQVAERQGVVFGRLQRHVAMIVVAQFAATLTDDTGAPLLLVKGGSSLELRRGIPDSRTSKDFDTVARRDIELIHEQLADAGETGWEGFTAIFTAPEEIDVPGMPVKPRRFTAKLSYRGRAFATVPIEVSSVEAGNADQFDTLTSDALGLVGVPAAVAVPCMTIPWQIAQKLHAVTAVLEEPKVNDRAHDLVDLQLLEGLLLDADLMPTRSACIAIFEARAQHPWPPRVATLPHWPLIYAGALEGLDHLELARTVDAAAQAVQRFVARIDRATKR

TakA (Rv1044), MBP-TakA, sequence (P96357 entry or part of it): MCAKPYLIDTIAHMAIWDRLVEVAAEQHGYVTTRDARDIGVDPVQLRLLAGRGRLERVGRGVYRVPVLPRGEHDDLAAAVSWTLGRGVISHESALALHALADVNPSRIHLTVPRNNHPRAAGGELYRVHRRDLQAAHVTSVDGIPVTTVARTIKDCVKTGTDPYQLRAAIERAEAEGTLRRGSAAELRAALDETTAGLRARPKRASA

| Structure (SMILES) | in vitro kinase assay, 32P transfer to TglT, SDS-PAGE [1] | native-PAGE autoradiography with unlabelled NTP competition [2] |
| --- | --- | --- |
| Nc1ncnc2c1ncn2[C@@H]1O[C@H](COP(=O)(O)OP(=O)(O)OP(=O)(O)O)[C@@H](O)[C@H]1O [ATP] | When incubating MBP-TakA with TglT (Fig. 5a), we detected radioactively labeled TglT species in SDS-PAGE. |  |
| Nc1nc2c(ncn2[C@@H]2O[C@H](COP(=O)(O)OP(=O)(O)OP(=O)(O)O)[C@@H](O)[C@H]2O)c(=O)[nH]1 [GTP] |  | We conclude that TglT specifically binds GTP. |

Reference: paper PMC7205606, “Characterization of a toxin-antitoxin system in Mycobacterium tuberculosis suggests neutralization by phosphorylation as the antitoxicity mechanism” (Communications Biology, 2020)
